Data from patent US20150285789A1, “ASSAYS, SYSTEMS, AND METHODS FOR OBTAINING PERSONALIZED ANABOLIC PROFILES” (BOSTON MEDICAL CENTER CORPORATION, priority 2012, published 2015).
“Also recorded” adds a separate entry of the source.

Legend:
C2C12 cells = experiment: High-throughput screen for small molecules that augment BMP-2 induced ALP expression (osteoblast conversion); format: cell-based, mouse; conditions: DM + BMP-2 + compound at target concentration 1 μM, 72 h, duplicate; ImageJ, Digilab and visual inspection analyses
Procedure: The level of alkaline phosphatase (ALP) activity measured colorimetrically was scored in all wells using three criteria (see Exemplary materials and methods in the Examples section). […] ALP intensity images were acquired using a Digilab Plate reader. Images were analyzed using three independent criteria and considered for secondary screening and validation in the MC3T3 pre-osteoblast cell line Enhancement of the mRNA and protein levels of the mature osteoblast markers RunX2 and osterix was tested. *Plates were run in duplicate.
C2C12 cells were plated at 750 cells per well in a 384-square well plate and were allowed to adhere for 24 h in growth media (GM). […] After 72 h, cells were fixed and stained for alkaline phosphatase (ALP) and DAPI for nuclei visualization. […] It was next sought to screen a larger set of small molecules from more diverse backgrounds to identify enhancement of osteoblast conversion.
Cell culture: C2C12. The C2C12 myoblast cell line (ATCC) was maintained in growth medium (GM) that consisted of high glucose DMEM (Gibco), 10% fetal bovine serum (Gibco), and 1% pen/strep (Invitrogen). […] Negative controls were switched to DM but only received 20 mM acetic acid. Cells were passaged approximately every two days and were kept below 70% con-fluency, as per manufacturer's instructions. MC3T3-E1. MC3T3-E1 subclone 4 pre-osteoblast cells (ATCC #CRL-2593) were maintained in minimum essential medium, alpha modification (Invitrogen #A10490-01) containing 10% FBS and 1% penicillin/streptomycin. […] All cell lines used were maintained in a 37° C. incubator at 5% CO2.
384-square well plates (BD) were used for primary screening. PBS was added to the outermost wells to reduce edge effects. In each plate, 40 wells were used as positive controls, 28 wells were used as negative controls, and the center 240 wells were used for compound testing. All plates were screened in duplicate. The inner 308 wells received 750 cells per well and were allowed to adhere in GM for 24 h. GM was then removed, wells were washed once with PBS, and DM was added to the inner 308 wells. Negative control wells received DM. […] DMSO was used as the vehicle for compound addition in this study. DMSO was also added to positive and negative control wells in equimolar amounts.
Cells were initially fixed with a fixative solution that consisted of a 3:10:26 ratio mixture of 37% formaldehyde: citrate: acetone. Colorimetric detection of osteoblasts was achieved using the alkaline phosphatase (ALP) kit obtained from Sigma-Aldrich (Catalog #86C). Cell number was determined based on nuclei staining with DAPI nucleic acid stain as per manufacturer's instructions (Invitrogen).
Well images identifying ALP+ cells were acquired using a MIAS-2 plate reader, as per manufacturer's instructions (Digilab, Holliston, Mass.).
Acquired images were assessed using three different search strategies (ImageJ software, Digilab software, and systematic scanning by eye); each having different sensitivities and specificities with regard to the assay.
Well images were opened with the image software platform ImageJ. Images were normalized on a per plate basis and, since ALP positive cells become darker in a gray scale image, the image darkness was assessed. Images were analyzed using an Area Fraction method whereby a minimum pixel darkness threshold was applied for all image wells. All pixels that were as dark or darker than the threshold applied were converted to black. […] The binary image was then assessed to see percentage of pixels of the image that were black (i.e. Area Fraction). Average Area Fraction from duplicate compound wells was divided by average duplicate nuclei count (as measured by DAPI count in ImageJ) to get Area Fraction on a per-cell basis. This ratio (Area Fraction: Nuclei count) was then compared to positive control wells.
Well images were analyzed using eaZYX Image Analyzer software (Digilab, Holliston, Mass.).

MC3T3 cells = experiment: TGFβ1 mediated inhibition of osteoblast differentiation, qRT-PCR of Runx2, Osx and Smad 7; format: cell-based, mouse
Procedure: MC3T3 cells were treated with media containing 1 ng/mL of TGFβ1 for 24 h and then the media were replaced with BMP-2 or BMP-2 with 100 ng/mL rapamycin. RNA was collected 24 h afterwards and analyzed by qRT-PCR and the ΔΔCT method. […] Shown are representative results (average of duplicates) of at least three independent experiments.
Total RNA was extracted by the TRIzol method as recommended by the manufacturer (Invitrogen). Isolated RNA was cleaned up using the Rneasy Kit (Qiagen) and 500 ng of RNA was reverse-transcribed using the High Capacity cDNA Synthesis Kit (Applied Biosystems #4368813). Taqman expression assays were used for detection. The expression of 18S (Applied Biosystems #4319413E) was used for normalization of gene expression values. Real-time primers Runx2, Sp7 (Osx), Bglap1 (Ocn) and Smad 7 were obtained from Applied Biosystems (Mm00501580_ml, Mm00504574_ml, Mm03413826_ml and Mm00484742_ml respectively). Quantification was determined using the ΔΔCT method and normalized to the untreated sample.

Row | Compound | enhancement of BMP-2 induced ALP expression (screen hit) (C2C12 cells) | Runx2 and Osx mRNA, basal levels (MC3T3 cells; TGFβ1 added to MC3T3 cells) | Smad-7 levels (MC3T3 cells; factor alone)
1 | CCCCC[C@H](O)CC[C@H]1[C@H](O)CC(=O)[C@@H]1CCCCCCC(=O)O [13, 14-Dihydro-prostaglandin E1] | enhanced ALP expression | – | –
2 | CC1=C(/C=C/C(C)=C/C=C/C(C)=C\C(=O)O)C(C)(C)CCC1 [13-cis retinoic acid] | identified in all three analyses | – | –
3 | CCCCCCCCCCCCCCC[C@@H](O)[C@H](CO)NC(C)=O [C2 dihydroceramide] | identified in all three analyses | – | –
4 | CC[C@@H]1/C=C(\C)C[C@H](C)C[C@H](OC)[C@H]2O[C@@](O)(C(=O)C(=O)N3CCCC[C@H]3C(=O)O[C@H](/C(C)=C/[C@@H]3CC[C@@H](O)[C@H](OC)C3)[C@H](C)[C@@H](O)CC1=O)[C@H](C)C[C@@H]2OC [FK-520] | also identified but was not among the top hits | – | –
5 | COC(=O)C1=C(C)NC(C)=C(C(=O)OCCSc2ccccc2)C1C (stereo not drawn) [PCA 4248] | identified in all three analyses | – | –
6 | C/C(=C\c1ccc(C(=O)O)cc1)c1ccc2c(c1)C(C)(C)CCC2(C)C [TTNPB] | identified in all three analyses | – | –
7 | C=C(c1ccc(C(=O)O)cc1)c1cc2c(cc1C)C(C)(C)CCC2(C)C [bexarotene] | identified in all three analyses | – | –
8 | COc1c(C)c2c(c(O)c1C/C=C(\C)CCC(=O)OCCN1CCOCC1)C(=O)OC2 [mycophenolate mofetil] | identified in all three analyses | – | –
9 | COc1c(C)c2c(c(O)c1C/C=C(\C)CCC(=O)O)C(=O)OC2 [mycophenolic acid] | identified in all three analyses | – | –
10 | O=C1NC(=O)C(c2ccccc2)(c2ccccc2)N1 [phenytoin] | identified in all three analyses | – | –
11 | CCCCC[C@H](O)/C=C/C1=C(CCCCCCC(=O)O)C(=O)CC1 [prostaglandin B1] | enhanced ALP expression | – | –
12 | CCCCC[C@H](O)/C=C/C1=C(C/C=C\CCCC(=O)O)C(=O)CC1 [prostaglandin B2] | identified in all three analyses | – | –
13 | CCCCC[C@H](O)/C=C/[C@H]1[C@H](O)CC(=O)[C@@H]1CCCCCCC(=O)O [prostaglandin E1] | identified in all three analyses; also recorded: enhanced ALP expression | – | –
14 | CCCCC[C@H](O)/C=C/[C@H]1[C@H](O)CC(=O)[C@@H]1C/C=C\CCCC(=O)O [prostaglandin E2] | enhanced ALP expression | – | –
15 | C=C[C@H]1C[N@@]2CC[C@H]1C[C@H]2[C@H](O)c1ccnc2ccc(OC)cc12 [quinine] | identified in all three analyses | – | –
16 | Oc1ccc(C=Cc2cc(O)cc(O)c2)cc1 [resveratrol] | notable hits among the top 45 compounds | – | –
17 | TGFβ1: transforming growth factor (TGF)-β1, anti-inflammatory cytokine used as antagonist of osteoblast differentiation | – | reduces basal levels | no apparent affect
